Experimental data taken from publication PMC8287944, “5-Fluorouracil blocks quorum-sensing of biofilm-embedded methicillin-resistant Staphylococcus aureus in mice” (Nucleic Acids Research, 2021).
Like-named read-outs stand apart in the source and are kept apart here. Bridge positions count the residues as written; N and C are the ends. Square brackets hold non-standard residues; d marks the D form. Peptide text beside a SMILES is read from it. I, II: the chains in the order shown. * marks the point of attachment. Quinoxaline2carbonyl = O=C(c1cnc2ccccc2n1)*; NMeV = CN[CH](C(=O)O)C(C)C; NMeC = CN[CH](CS)C(=O)O

Assays:
[1] = test system: AI-2 production by HEK-293AI2 cells expressing MTAN and LuxS; assay: HEK-293AI2 / V. harveyi (MM32) AI-2 detection platform (AI-2 production by engineered human cells); assay type: cell-based, human cells; MTAN and LuxS derived from E. coli; details: for IC50: HEK-293AI2 cells exposed 24 h, AI-2 in supernatant read by V. harveyi MM32 bioluminescence
Protocol: LuxS (MF688636) and MTAN (MF688635) transgenes derived from E. coli were codon-optimized for stable expression in mammalian cells. For the generation of double stable HEK-293-derived cell line HEK-293AI2 transgenic for simultaneous constitutive PhEFIα-driven MTAN and PhCMV-driven LuxS-eYFP expression, 250,000 cells were first transfected with 2000 ng of pFS168 (PhEFIα-MTAN-pA) and selected in culture medium containing 20 μg/ml blasticidin (cat. no. ant-bl-1; InvivoGen, San Diego, CA, USA) for two weeks. […] After 17 days of selection in medium containing 200 μg/ml (w/v) zeocin (cat. no. ant-zn-1; Invivogen, San Diego, CA, USA) and 20 μg/ml blasticidin, resistant monoclonal cells (HEK-293sFS26cx) were obtained by limiting dilution cloning and screened for AI-2 activity in their supernatants. […] The cell line was regularly tested for the absence of mycoplasma.
20 μl of HEK-293AI2 cells (10^4 cells per well) were resuspended in 20 μl Dulbecco's modified Eagle's medium (DMEM; Thermo Fisher, Basel, Switzerland, low glucose, without phenol red, cat. no. 11880–028) supplemented with 4 mM L-glutamine (Thermo Fisher, Basel, Switzerland, cat. no. 25030-024), 30 μg/ml kanamycin and 1% FCS and seeded into a poly-L-lysine-coated Black Greiner clear-bottom 384-well plate (cat. no. 3845; Corning, New York, USA) using a Multidrop Combi Reagent Dispenser (cat. no. 5840300; Thermo Fisher, Basel, Switzerland). Cells were incubated for 20 h and then 20 nL of individual compounds (stock solution in 5 mM in DMSO) or controls (stock solutions of novobiocin, 10 mM in DMSO; staurosporin, 20 mM in DMSO) were transferred with Echo 550 liquid handler (Labcyte, San Jose, CA, USA) into the plate.
Compound-treated cells were cultivated for 24 hours and the cell culture supernatants (10 μl) were transferred to dry black polystyrene 384-well plates (Corning, New York, USA, cat. no. 3571). The AI-2 activity was quantified by adding 40 μl per 384-well of V. harveyi MM32 AI-2 reporter strain, diluted 1:500 in AB-Medium from a stationary overnight culture grown in Luria Marine (LM)-medium containing 20 g of NaCl, 10 g of Bacto Tryptone (Difco Laboratories), and 5 g of yeast extract (BBL) ([25]). Plates were sealed with BREATHseal™ (cat. no. 7.676 050; Greiner Bio-One, Frickenhausen, Germany) and incubated for 4 h at 30°C and 200 rpm on a Multitron Pro shaker (Infors, Bottmingen, Switzerland). Bioluminescence was measured on an Envision 2104 Multilabel plate reader (Perkin Elmer, Waltham, USA) with 1 s integration time. […] The initial hit inclusion criteria were a toxicity score of less than 50% and an AI-2 activity reduction below the average of all compound activity three times the standard deviation (-49.39% of activity).
(§1) Figure 2. Cell-based primary screen for AI-2 biosynthesis inhibitors. (A) Detailed assay protocol of the primary screen using engineered mammalian cells to identify inhibitors of quorum sensing. […] Aliquots of 10 μl of culture supernatants were transferred to black-bottomed assay plates and mixed with 40 μl of V. harveyi MM32 (AI-2 biosensor). AI-2-induced bioluminescence was measured 4 h later and normalized against the controls. In a secondary screen, the dose-response relationships of hit compounds are analyzed. To simultaneously assess effects on cell viability, compound-treated cells were supplemented with PrestoBlue and incubated for 1 h prior to resorufin fluorescence quantification. (B) Z’-evaluation of the AI-2 inhibitor assay.

HEK-293AI2 cells = assay type: cell-based, human
Protocol: To monitor viable cells with active metabolism, we employed a fast resazurin assay. […] To calculate the relative cell viability, the fluorescence of DMSO-treated cells was set to 100%.
as §1, with “assay. […] Bioactivity and viability are calculated as percentages, based on the positive control value (taken as 100%) and negative control value (taken as 0%). […] Data points in (C) represent means of biological duplicates.” for “assay.”

MTAN = details: cited from earlier work; for Ki: read-out: Ki (reported, in vitro)
V. harveyi (BB170) = assay: V. harveyi BB170 growth (OD600 after 24 h); assay type: cell-based, Vibrio harveyi; parameters: TC50 (decrease of V. harveyi growth): unit not given beside the values; details: V. harveyi BB170, OD600 after 24 h
Protocol: The test strain V. harveyi BB170 was grown overnight in Luria Marine (LM)-medium ([25]). The culture was 1:500 diluted in AB-medium (0.3 M NaCl, 10 mM potassium phosphate, 1 mM L-arginine, […], 1% glycerol) the next day, and then challenged with various chemical compounds. After 5 h of shaking at 200 rpm at 30°C, the bioluminescence of BB170 was quantified on a GENios Pro plate reader (Tecan, Männedorf, Switzerland).
Figure 3. Bioactivity of hit candidates against Vibrio harveyi. Effect on bacterial growth. V. harveyi (BB170) was grown in the presence of individual compounds (A–H) for 5 h and the bioluminescence (green circles) was quantified. After a total of 24 h, bacterial growth (+) was evaluated by measuring the optical density (OD600). The gray translucent background in (C) represents the narrow range within which the compound reduces bioluminescence without affecting growth.

Compound: C/C=C\C=C\[C@@H]1O[C@](O)([C@H](CC)C(=O)NC/C=C/C=C(\C)[C@@H](OC)[C@H](C)[C@@H]2O[C@H](/C=C/C=C/C=C(\C)C(=O)c3c(O)cc[nH]c3=O)[C@H](O)[C@@H]2O)[C@H](O)[C@H](O)C1(C)C [Mocimycin]
- IC50 [1]: 1370 nM

Compound: CC[C@H]1OC(=O)[C@H](C)[C@@H](O[C@H]2C[C@@](C)(OC)[C@@H](O)[C@H](C)O2)[C@H](C)[C@@H](O[C@@H]2O[C@H](C)C[C@H](N(C)C)[C@H]2O)[C@](C)(O)C[C@@H](C)C(=O)[C@H](C)[C@@H](O)[C@H]1C [Erythromycin B]
- IC50 [1]: 1420 nM
- Viability of Ctrl (%) (HEK-293AI2 cells): 4.99%

Compound: O=c1[nH]c(=O)n([C@H]2C[C@H](O)[C@@H](CO)O2)cc1F [Floxuridine]
- IC50 ([1]; Homo sapiens, 24 h): 770 nM
- Viability of Ctrl (%) (HEK-293AI2 cells; human, 5 µM): –22.28%

Compound: O=CN(O)C[C@@H](CC1CCCC1)C(=O)N1C[C@H](F)C[C@H]1C(=O)Nc1cnccn1 [SCHEMBL12230405]
- IC50 [1]: 150 nM

Compound: CCCCC[C@H](CC(=O)NO)C(=O)N[C@H](C(=O)N1CCC[C@H]1CO)C(C)C [Actinonin]
- IC50 ([1]; Homo sapiens, 24 h): 1000 nM
- Viability of Ctrl (%) (HEK-293AI2 cells; human, 5 µM): –11.93%

Compound: O=CN(O)C[C@@H](CC1CCCC1)C(=O)N1C[C@H](F)C[C@H]1C(=O)Nc1cccnn1 [SCHEMBL12230409]
- IC50 [1]: 640 nM

Compound: CSC[C@H]1CN(Cc2c[nH]c3c(N)ncnc23)C[C@@H]1O [MT-DADMe-ImmA]
- IC50 [1]: 170 nM
- Ki (MTAN; MTAN inhibition): 0.002 nM

Compound: Levomycin
- IC50 [1]: 370 nM

Compound: Erythromycin
- IC50 [1]: 1930 nM

Compound: O=CN(O)C[C@@H](CC1CCC1)C(=O)N1C[C@H](F)C[C@H]1C(=O)Nc1cccnn1 [SCHEMBL12230407]
- IC50 [1]: 630 nM

Compound: Nc1nc(Cl)nc2c1ncn2[C@@H]1O[C@H](CO)[C@@H](O)[C@@H]1F [Clofarabine]
- IC50 ([1]; Homo sapiens, 24 h): 160 nM
- Viability of Ctrl (%) (HEK-293AI2 cells; human, 5 µM): 15.42%
- TC50 (decrease of V. harveyi growth) (V. harveyi (BB170)): 4.4 × 10^−7

Compound: CO[C@H]1/C=C/O[C@@]2(C)Oc3c(C)c(O)c4c(c3C2=O)C2=NC3(CCN(CC(C)C)CC3)NC2=C(NC(=O)/C(C)=C\C=C\[C@H](C)[C@H](O)[C@@H](C)[C@@H](O)[C@@H](C)[C@H](OC(C)=O)[C@@H]1C)C4=O [Rifabutin]
- IC50 ([1]; Homo sapiens, 24 h): 2190 nM
- Viability of Ctrl (%) (HEK-293AI2 cells; human, 5 µM): –5.07%

Compound: CO[C@H]1/C=C/O[C@@]2(C)Oc3c(C)c(O)c4c(O)c(c(/C=N/N5CCN(C6CCCC6)CC5)c(O)c4c3C2=O)NC(=O)/C(C)=C\C=C\[C@H](C)[C@H](O)[C@@H](C)[C@@H](O)[C@@H](C)[C@H](OC(C)=O)[C@@H]1C [Rifapentine]
- IC50 ([1]; Homo sapiens, 24 h): 2530 nM
- Viability of Ctrl (%) (HEK-293AI2 cells; human, 5 µM): –0.98%

Compound: NC(=O)c1ncn([C@@H]2O[C@H](CO)[C@@H](O)[C@H]2O)n1 [Ribavirin]
- IC50 ([1]; Homo sapiens, 24 h): 190 nM

Compound: C[C@@H]1C/C=C2\SC[C@@H](NC(=O)c3coc(n3)C[C@H](O)C[C@H](O)/C=C/C=C/CNC2=O)C(=O)O1 [Griseoviridin]
- IC50 [1]: 4550 nM

Compound: CNC1=NC(=O)[C@H]([C@@H](C)c2c[nH]c3ccccc23)O1 [CHEMBL283366]
- IC50 [1]: 180 nM

Compound: Nc1ncnc2c([C@@H]3O[C@H](CO)[C@@H](O)[C@H]3O)[nH]nc12 [Formycin]
- IC50 ([1]; Homo sapiens, 24 h): 2110 nM
- Ki (MTAN; competitive MTAN inhibition): 10000 nM
- IC50 (MTAN; competitive MTAN inhibition, read-out: Reported IC50 (in vitro)): 57000 nM

Compound: COc1cc(C)c(Cc2cnc(N)nc2N)cc1OC [Ormetoprim]
- IC50 ([1]; Homo sapiens, 24 h): 3660 nM

Compound: CCCC[C@H](CN(O)C=O)C(=O)N1CCC[C@H]1C(=O)Nc1cc(CC)ccn1 [SCHEMBL14510040]
- IC50 [1]: 1090 nM

Compound: CC(=O)NC[C@H]1CN(c2ccc(N3CCOCC3)c(F)c2)C(=O)O1 [Linezolid]
- IC50 ([1]; Homo sapiens, 24 h): 4160 nM
- Viability of Ctrl (%) (HEK-293AI2 cells; human, 5 µM): 0.38%

Compound: CC[C@H]1OC(=O)[C@H](C)[C@@H](O[C@H]2C[C@@](C)(OC)[C@@H](O)[C@H](C)O2)[C@H](C)[C@@H](O[C@@H]2O[C@H](C)C[C@H](N(C)C)[C@H]2O)[C@](C)(O)C[C@@H](C)C(=O)[C@H](C)[C@@H](O)[C@]1(C)O.O=C(O)[C@H](O)[C@H](O)[C@@H](O)[C@H](O)[C@H](O)CO [Erythrohycin Gluceptate]
- IC50 [1]: 1310 nM

Compound: CC1NC(=O)C(NC(=O)c2cnc3ccccc3n2)COC(=O)C(C(C)C)N(C)C(=O)C2CSSCC(C(=O)N(C)C(C(C)C)C(=O)OCC(NC(=O)c3cnc4ccccc4n3)C(=O)NC(C)C(=O)N2C)N(C)C1=O (centres unmarked) [Triostin A] (I: Quinoxaline2carbonyl-SA[NMeC][NMeV] / II: Quinoxaline2carbonyl-SA[NMeC][NMeV]; ester I:1-II:C, I:C-II:1; disulfide I:3-II:3; configuration not given here)
- IC50 [1]: 2140 nM

Compound: CO[C@@H]1[C@@H](OC(N)=O)[C@@H](O)[C@H](Oc2ccc3c(O)c(NC(=O)c4ccc(O)c(CC=C(C)C)c4)c(=O)oc3c2C)OC1(C)C [novobiocin]
- Bioluminescence of V. harveyi (MM32) ([1]; assay validation, active control novobiocin 10 μM): completely shut down the bioluminescence

Compound: CO/N=C(\C(=O)N[C@@H]1C(=O)N2C(C(=O)O)=C(CSc3nc(=O)c(=O)[nH]n3C)CS[C@H]12)c1csc(N)n1 [Ceftriaxone]
- IC50 ([1]; Homo sapiens, 24 h): 3490 nM
- Viability of Ctrl (%) (HEK-293AI2 cells; human, 5 µM): –4.78%

Compound: C[C@H]1O[C@@H](n2cc(F)c(=O)[nH]c2=O)[C@H](O)[C@@H]1O [Doxifluridine]
- IC50 ([1]; Homo sapiens, 24 h): 240 nM
- Viability of Ctrl (%) (HEK-293AI2 cells; human, 5 µM): –0.0725%
